Data as given in PubChem BioAssay AID1996.
≈ marks a conversion by molar mass, not a printed value.

details: buffer; pH 7.4; 200.0 µM

CC1CCC2(CC1)NC(=O)N(CC(=O)NCCc1ccccc1)C2=O (stereo not given) and O=C(O)C1CC=CCC1C(=O)NCCCCc1ccccc1 (stereo not given) cannot be ordered by solubility kinetic: over 51.5 µg/mL for the first, over 45.2 µg/mL for the second.

Going from Cc1noc2ncnc(Oc3cc(Cl)ccc3Cl)c12 to CCNC(=O)C(C)Oc1ccc(Cl)cc1Cl (stereo not given), the solubility kinetic rises from under 0.2 µg/mL to over 39.3 µg/mL.

COc1cccc2c(Cl)c(CC=C(Cl)Cl)c(C)nc12 and Cc1cc(C)nc(SCc2ccc(Cl)cc2)n1 cannot be ordered by solubility kinetic: under 0.7 µg/mL for the first, 0.6 µg/mL (≈ 2.27 µM) for the second.

First: Cc1cc(C=C2C(=O)NC(=O)NC2=O)c(C)n1-c1cccnc1
Second: Cc1cc(C=O)c(C)n1-c1ccc2c(c1)OCO2
The solubility kinetic of the first is 2.3-fold lower: 10.6 µg/mL (≈ 34.2 µM) for the first, 24.6 µg/mL (≈ 101 µM) for the second.

First: CCCCOc1ccc(C(=O)OCC(=O)N2CCOCC2)cc1
Second: CCCCOC(=O)N1CCOCCOCCOCCOCC1
The solubility kinetic of the first is lower: 29.9 µg/mL (≈ 93 µM) for the first, over 47.9 µg/mL for the second.

Going from O=C(NCc1ccccc1Cl)c1ccc[nH]1 to CN(Cc1c(F)cccc1Cl)C(=O)CCc1c[nH]c2ccccc12, the solubility kinetic falls from 31.5 µg/mL (≈ 134 µM) to 11.9 µg/mL (≈ 34.5 µM) (2.6-fold).

Compared with Cc1c(C(=O)C(=O)NCc2ccco2)c2ccccc2n1C, Cc1cc(=O)n(Cc2ccccc2)c2c(C)cccc12 is lower in solubility kinetic: over 44.4 µg/mL for the first, under 0.6 µg/mL for the second.

Going from NS(=O)(=O)c1ccc(N2CCN(S(=O)(=O)Cc3ccccc3)CC2)nc1 to CCN1CCN(c2ccc(S(=O)(=O)N3CCCC3)cn2)CC1, the solubility kinetic rises from 4.1 µg/mL (≈ 10.3 µM) to 34.6 µg/mL (≈ 107 µM) (8.4-fold).

Going from CC(C)n1c(SCC(=O)Nc2nncs2)nnc1C1CC1 to NC(=O)C1CCN(CC(O)CSc2ccc(F)cc2)CC1 (stereo not given), the solubility kinetic falls from over 48.7 µg/mL to 37.3 µg/mL (≈ 119 µM).

First: COn1c(-c2ccc(Cl)cc2)nc2ncccc21
Second: Cc1ccc(Cn2c(=O)oc3ccccc32)cc1
The solubility kinetic of the first is higher: over 39 µg/mL for the first, 1 µg/mL (≈ 4.18 µM) for the second.

Compared with Cc1ccc(C(=O)C2CCN(CC(=O)Nc3ccccc3C)CC2)cc1, Cc1cc(Cl)ccc1NC(=O)CN1CCCC1 is higher in solubility kinetic: 1.7 µg/mL (≈ 4.85 µM) for the first, over 37.9 µg/mL for the second.

Going from Cc1ccc(S(=O)(=O)N2CCN(C(=O)CC(C)C)CC2)cc1 to Cc1ccc(C2(C)NC(=O)N(CC(=O)N3CCN(S(=O)(=O)c4cccc([N+](=O)[O-])c4)CC3)C2=O)cc1 (stereo not given), the solubility kinetic falls from over 48.7 µg/mL to 12.7 µg/mL (≈ 24.6 µM).

Going from O=C(CC1CCC1)NC(c1ccccc1)c1ccccc1 to CCCCC(=O)NC(=O)NC(c1ccccc1)c1ccccc1, the solubility kinetic falls from 6.5 µg/mL (≈ 23.3 µM) to under 0.3 µg/mL.

First: Cc1ccc(NC(=O)C2CCCCC2C(=O)O)cc1C (stereo not given)
Second: COc1cccc2cc(C(=O)OCC(=O)NC3CCCC(C)C3C)c(=O)oc12 (stereo not given)
The solubility kinetic of the first is 2.9-fold higher: 40.4 µg/mL (≈ 147 µM) for the first, 13.7 µg/mL (≈ 35.4 µM) for the second.

Going from Cc1nc([N+](=O)[O-])c(C(=O)OCc2ccccc2F)n1C to CC1CC(C)CN(CC(O)COCc2ccccc2F)C1.Cl (stereo not given), the solubility kinetic rises from 41.8 µg/mL (≈ 143 µM) to over 49.8 µg/mL.

First: CC(=O)Nc1ccc(NC(=O)C(C)OC(=O)c2ccc(S(=O)(=O)N3CCCCC3)cc2)cc1 (stereo not given)
Second: COc1ccc(NC(=S)NCCCN2CCCC2)cc1Cl
The solubility kinetic of the first is lower: 6.4 µg/mL (≈ 13.5 µM) for the first, over 49.2 µg/mL for the second.

First: CCN1CCN(c2nnc(-c3ccccc3)c3ccccc23)CC1
Second: O=C(c1ccccc1Cl)N1CCn2c1nc1ccccc12
The solubility kinetic of the first is higher: over 47.8 µg/mL for the first, 29.5 µg/mL (≈ 99.1 µM) for the second.

Going from COc1cc(C(=O)NC23CC4CC(CC(C4)C2)C3)cc(OC)c1OC to COc1cc2c(cc1OC)CN(Cc1ccccc1)CC2, the solubility kinetic rises from under 0.7 µg/mL to 35.6 µg/mL (≈ 126 µM).

O=C(NCCN1CCOCC1)c1cc(-c2ccccc2Cl)on1 and O=C(NCCN1CCCCC1)c1ccc(F)cc1Cl cannot be ordered by solubility kinetic: over 50.4 µg/mL for the first, over 42.7 µg/mL for the second.

Compared with CCOc1ccc(S(=O)(=O)NCc2cccnc2)cc1, CN(Cc1ccccc1)C(=O)COC(=O)CCC(=O)c1ccc(F)cc1 is lower in solubility kinetic: over 43.9 µg/mL for the first, 14.8 µg/mL (≈ 41.4 µM) for the second.

CCc1nc2ccccc2c(C(=O)Nc2cc(C)ccc2C)c1C and CCCc1nc2oc3ccccc3c(=O)c2c(=O)n1-c1ccc(C)cc1 are within 1.5-fold of each other in solubility kinetic: 45.6 µg/mL (≈ 143 µM) for the first, 39.8 µg/mL (≈ 115 µM) for the second.

Going from COc1ccc(CCNC(=O)COC(=O)/C=C/c2ccc3c(c2)OCO3)cc1OC to COc1ccc2oc(C(=O)OCC(=O)NC(=O)c3ccccc3)c(C)c2c1, the solubility kinetic falls from 12.7 µg/mL (≈ 30.7 µM) to 4.5 µg/mL (≈ 12.2 µM) (2.8-fold).

Going from Cc1c(C(=O)N(C)CCn2ccnc2C)oc2c(F)cccc12 to Cc1noc(C)c1C(=O)Nc1nc(-c2ccc(F)c(F)c2)cs1, the solubility kinetic falls from 38.1 µg/mL (≈ 121 µM) to 4.8 µg/mL (≈ 14.3 µM) (7.9-fold).

Compared with O=c1c2ccccc2nc(-c2ccccc2Cl)n1-c1cccc(O)c1, O=C(NCc1ccccc1)c1nc[nH]c1C(=O)NCc1ccccc1 is lower in solubility kinetic: over 52.3 µg/mL for the first, 1.1 µg/mL (≈ 3.29 µM) for the second.

Going from C(#CCN1CCCCC1)COCc1ccccc1.Cl to CCOc1ccccc1OCCN1CCCC1, the solubility kinetic falls from 39 µg/mL to 24.1 µg/mL (≈ 102 µM) (1.6-fold).

CS(=O)(=O)N1CCC(C(=O)NCc2ccc3c(c2)OCO3)CC1 and NC(=O)C1(N2CCCCC2)CCN(Cc2nc(-c3cccs3)no2)CC1 cannot be ordered by solubility kinetic: over 51.1 µg/mL for the first, over 56.3 µg/mL for the second.

Going from CCSC1=NCCN1C(=O)C(C)(C)Oc1ccc(Cl)cc1 to CC(C)(C)OC(=O)NCCC(=O)N/N=C/c1ccc2ncccc2c1, the solubility kinetic rises from 9.8 µg/mL (≈ 30 µM) to over 51.4 µg/mL.

First: CC(=O)N(C)c1ccc(NC(=S)NCC(C)C)cc1
Second: Cc1cc(NC(=O)COC(=O)C2=COCCO2)c([N+](=O)[O-])cc1C
The solubility kinetic of the first is higher: over 41.9 µg/mL for the first, 3.7 µg/mL (≈ 11 µM) for the second.

Going from Cc1cccc(OCC2Cn3c(nc4c3c(=O)[nH]c(=O)n4C)O2)c1 (stereo not given) to CCCc1cc(NCCCO)n2c(nc3ccccc32)c1C#N, the solubility kinetic falls from 9 µg/mL (≈ 27.4 µM) to 3.3 µg/mL (≈ 10.7 µM) (2.7-fold).

Going from N#CC(C#N)=Cc1cccnc1 to C=C(C)Cn1cnc2cc(C)c(C)cc21, the solubility kinetic rises from 19.5 µg/mL (≈ 126 µM) to over 30 µg/mL.
